Values of other authors as cited in US20180185375A1, “COMPOSITIONS AND METHODS FOR THE TREATMENT OF SUBSTANCE USE DISORDERS, ADDICTION, AND PSYCHIATRIC DISORDERS” (EMBERA NEUROTHERAPEUTICS, INC., priority 2015, published 2018).

Legend:
adrenal gland = settings: in vivo
[1] = test system: cocaine self-administration in rats
cortisol levels = settings: healthy subjects
[2] = 12.5 mg/kg metyrapone tested alone, rats

Clc1ccc(C(c2ccccc2Cl)C(Cl)Cl)cc1 (stereo not drawn) [Mitotane]
doses at which it is an adrenolytic agent (adrenal gland): greater than 4 g per day

Cc1nnc2n1-c1ccc(Cl)cc1C(c1ccccc1)=NC2 [alprazolam]
effect of the dose alone on cocaine self-administration ([1]; alprazolam 1.0 mg/kg, ip, alone): ineffective

CCOC(=O)c1cncn1[C@H](C)c1ccccc1 [etomidate]
time after which infusion resulted in significant suppression of cortisol levels (cortisol levels): 5 h | time of maximal effects on cortisol levels (cortisol levels; infusion): 11 h

CC(C)(C(=O)c1cccnc1)c1cccnc1 [metyrapone]
effect on cocaine-maintained responding [1, 2]: no effect | effect on food-maintained responding [1, 2]: no effect
